Reference: patent publication US20050215543A1, “Methods of treating HIV infection” (priority 2004, published 2005)

Experiments:
HIV-1 LAI = test: Drug susceptibility assay, MT-2 cells infected with HIV-1 LAI, MTS assay readout (samples involving non-nucleoside RT inhibitors); assay type: cell-based; details: for EC50: Human immunodeficiency virus 1, MT2, 120 h, single drug, MT-2 cells, HIV-1 LAI, MOI 0.005, 5 days, MTS assay (non-nucleoside RT inhibitors); for Combination Indices at % HIV Inhibition (Confidence Interval) 50%: 50% HIV inhibition; for Combination Indices at % HIV Inhibition (Confidence Interval) 50% / Combination Indices at % HIV Inhibition (Confidence Interval) 75% / Combination Indices at % HIV Inhibition (Confidence Interval) 90%: MTS readout, 95% CI in parenthesis; for Combination Indices at % HIV Inhibition (Confidence Interval) 75%: 75% HIV inhibition; for Combination Indices at % HIV Inhibition (Confidence Interval) 90%: 90% HIV inhibition; for Overall Result: two-drug combination with Compound 1, all ratios and effect levels, MT-2/HIV-1 LAI, MTS assay
Method: (§1) Virus and cell lines. The T-cell lines, MT-2 and PM-1 were obtained through the AIDS Research and Reference Reagent Program, NIAID, and were contributed by Dr. D. Richman and Dr. R. Gallo, respectively. Both cell lines were cultured in RPMI 1640 medium supplemented with 10% fetal bovine serum, 2 mM L-glutamine and sub-cultured twice a week. The LAI strain of HIV-1 was obtained from the Fred Hutchinson Cancer Research Center, and the Bal strain was from NIH. Both virus stocks were amplified and titered in MT-2 cells (LAI) and PM-1 cells (Bal) using a virus infectivity assay.
(§2) Drug Susceptibility and Cytotoxicity Assays. For drug susceptibility assays, MT-2 cells were infected with HIV-1 LAI (or PM-1 cells with HIV-1 Bal) at an MOI of 0.005, and seeded into 96-well microtiter plates (0.1×10^6 cells/ml) containing serial dilutions of test compounds. […] Each drug ratio consisted of an array of 3-fold serial dilutions, and was performed in quadruplicate. The plates were incubated at 37° C./5% CO2. The MT-2 cells infected with HIV-1 LAI were incubated for 5 days. On day-five post-infection, 20 μl from each well was harvested and quantitated by a reverse transcriptase (RT) assay, or in samples involving non-nucleoside RT inhibitors, an MTS assay. The PM-1 cells infected with HIV-1 Bal and used for studying the combinations with CCR5 inhibitors were incubated for six days. On day-six post-infection, 20 μl from each well was harvested, 20- and 50-fold diluted and quantitated by p24 assay. Cytotoxicity assays were performed using uninfected cells, exposed to the same drug combinations, and incubated for six days. Cell viability was determined by an XTT assay. The CC50 values were calculated by using the exponential form of the median effect equation as mentioned below for calculation of EC50.
(§3) Analysis of Drug Combination Effects. For determination of CI values, drugs were diluted in a fixed ratio and multiple ratios were analyzed. The drug serial dilutions spanned a range of concentrations near the EC50 value of each compound, so that equivalent antiviral activities could be compared. Concentration-response curves were estimated for each individual drug and every combination using the median-effect equation. The equation was fit using a nonlinear regression routine (Proc Nlin) in PC SAS version 8.01 (SAS Institute Inc., SAS Version 8.01, Cary, N.C.: SAS Institute Inc., 1990).
(§4) In this equation, Fa stands for “fraction affected,” and represents the fraction of the viral load that has been inactivated. […] ED50 is drug concentration that is expected to reduce the amount of virus by 50%, and m is a parameter that reflects the slope of the concentration-response curve.
(§5) To assess antiviral effects of different drug combination treatments, combination indices (CIs) were calculated according to Chou and Rideout. The combination index was computed as CI=[D]1/[Dm]1+[D]2/[Dm]2
(§6) In this equation [Dm]1 and [Dm]2 are the concentrations of drugs that would individually produce a specific level of effect, while [D]1 and [D]2 are the concentrations of drugs in combination that would produce the same level of effect.
(§7) Theoretically, additivity is implied if the CI is equal to one, synergy if the CI is less than one, and antagonism if the CI is greater than one. […] At best, we can construct a range that contains the likely values for the CI, given the noise in the data. In this report, these ranges are reported in parentheses next to each point estimate of the CI. […] If the range fell entirely above 1.0, we would infer antagonistic behavior. If the range were to include 1.0, we would infer additivity.
(§8) In carrying out the combination experiments below, the EC50 for Compound 1 and each comparator compound was determined during the course of each study, and used in the subsequent data analysis.

HIV-1 Bal = test: Drug susceptibility assay, PM-1 cells infected with HIV-1 Bal, p24 assay readout (combinations with CCR5 inhibitors); assay type: cell-based; details: for Combination Indices at % HIV Inhibition (Confidence Interval) 50%: 50% HIV inhibition; for Combination Indices at % HIV Inhibition (Confidence Interval) 50% / Combination Indices at % HIV Inhibition (Confidence Interval) 75% / Combination Indices at % HIV Inhibition (Confidence Interval) 90% / Overall Result: PM-1/HIV-1 Bal; for Combination Indices at % HIV Inhibition (Confidence Interval) 50% / Combination Indices at % HIV Inhibition (Confidence Interval) 75% / Combination Indices at % HIV Inhibition (Confidence Interval) 90%: p24, 95% CI in parenthesis; for Combination Indices at % HIV Inhibition (Confidence Interval) 75%: 75% HIV inhibition; for Combination Indices at % HIV Inhibition (Confidence Interval) 90%: 90% HIV inhibition; for EC50: single drug, PM-1 cells, HIV-1 Bal, MOI 0.005, 6 days, p24 assay (CCR5 inhibitors); for Overall Result: two-drug combination with Compound 1, all ratios and effect levels, p24 assay
Method: as §1, §2, §3, §4, §5, §6, §7, §8

[1] = combination with Compound 1, EC50 ratio 1:1
[2] = combination with Compound 1, EC50 ratio 1:2.5
[3] = combination with Compound 1, EC50 ratio 2.5:1

Row | Compound | EC50 (HIV-1 LAI) | Combination Indices at % HIV Inhibition (Confidence Interval) 50% (HIV-1 LAI; [1]) | Combination Indices at % HIV Inhibition (Confidence Interval) 75% (HIV-1 LAI; [1]) | Combination Indices at % HIV Inhibition (Confidence Interval) 90% (HIV-1 LAI; [1]) | Combination Indices at % HIV Inhibition (Confidence Interval) 50% (HIV-1 LAI; [2]) | Combination Indices at % HIV Inhibition (Confidence Interval) 75% (HIV-1 LAI; [2]) | Combination Indices at % HIV Inhibition (Confidence Interval) 90% (HIV-1 LAI; [2]) | Combination Indices at % HIV Inhibition (Confidence Interval) 50% (HIV-1 LAI; [3]) | Combination Indices at % HIV Inhibition (Confidence Interval) 75% (HIV-1 LAI; [3]) | Combination Indices at % HIV Inhibition (Confidence Interval) 90% (HIV-1 LAI; [3]) | Overall Result (HIV-1 LAI) | Combination Indices at % HIV Inhibition (Confidence Interval) 50% (HIV-1 Bal; [1]) | Combination Indices at % HIV Inhibition (Confidence Interval) 75% (HIV-1 Bal; [1]) | Combination Indices at % HIV Inhibition (Confidence Interval) 90% (HIV-1 Bal; [1]) | Combination Indices at % HIV Inhibition (Confidence Interval) 50% (HIV-1 Bal; [2]) | Combination Indices at % HIV Inhibition (Confidence Interval) 75% (HIV-1 Bal; [2]) | Combination Indices at % HIV Inhibition (Confidence Interval) 90% (HIV-1 Bal; [2]) | Combination Indices at % HIV Inhibition (Confidence Interval) 50% (HIV-1 Bal; [3]) | Combination Indices at % HIV Inhibition (Confidence Interval) 75% (HIV-1 Bal; [3]) | Combination Indices at % HIV Inhibition (Confidence Interval) 90% (HIV-1 Bal; [3]) | also measured
1 | CC(C)Nc1cccnc1N1CCN(C(=O)c2cc3cc(NS(C)(=O)=O)ccc3[nH]2)CC1 [Delavirdine, delavirdine] | 1.6 nM | 0.11 (0.00, 0.26) | 0.09 (0.02, 0.15) | 0.09 (0.00, 0.21) | 0.32 (0.20, 0.43) | 0.09 (0.08, 0.10) | 0.03 (0.02, 0.03) | 0.28 (0.22, 0.35) | 0.17 (0.14, 0.20) | 0.16 (0.11, 0.35) | Synergistic |  |  |  |  |  |  |  |  |  | Overall Result (HIV-1 LAI; listed as delavirdine): strong synergistic effects
2 | O=C1Nc2ccc(Cl)cc2[C@@](C#CC2CC2)(C(F)(F)F)O1 [Efavirenz, efavirenz] | 0.06 nM | 0.71 (0.50, 0.91) | 0.64 (0.38, 0.90) | 0.64 (0.22, 1.06) | 0.23 (0.17, 0.29) | 0.23 (0.17, 0.30) | 0.25 (0.12, 0.38) | 0.58 (0.45, 0.70) | 0.47 (0.32, 0.61) | 0.46 (0.23, 0.69) | Synergistic |  |  |  |  |  |  |  |  |  | Overall Result (HIV-1 LAI; listed as efavirenz): strong synergistic effects
3 | COC[C@@H](c1ccc(C(F)(F)F)cc1)N1CCN(C2(C)CCN(C(=O)c3c(C)ncnc3C)CC2)C[C@@H]1C [Sch-D] |  |  |  |  |  |  |  |  |  |  |  | 0.49 (0.43, 0.55) | 0.41 (0.34, 0.49) | 0.36 (0.26, 0.46) | 0.71 (0.62, 0.81) | 0.55 (0.44, 0.65) | 0.44 (0.31, 0.57) | 0.51 (0.45, 0.56) | 0.55 (0.47, 0.63) | 0.61 (0.46, 0.75) | EC50 (HIV-1 Bal): 0.5 nM; Overall Result (HIV-1 Bal): moderate synergistic to synergistic
4 | CCO/N=C(\c1ccc(Br)cc1)C1CCN(C2(C)CCN(C(=O)c3c(C)cc[n+]([O-])c3C)CC2)CC1 [Sch-C] |  |  |  |  |  |  |  |  |  |  |  | 0.63 (0.51, 0.74) | 0.70 (0.52, 0.89) | 0.80 (0.46, 1.13) | 0.49 (0.41, 0.58) | 0.65 (0.49, 0.80) | 0.86 (0.52, 1.19) | 0.24 (0.19, 0.28) | 0.36 (0.27, 0.45) | 0.55 (0.31, 0.79) | EC50 (HIV-1 Bal): 3 nM; Overall Result (HIV-1 Bal): moderate synergistic to synergistic
5 | Cc1ccnc2c1NC(=O)c1cccnc1N2C1CC1 [Nevirapine, nevirapine] | 63 nM | 0.87 (0.79, 0.94) | 0.80 (0.69, 0.90) | 0.74 (0.58, 0.89) | 0.85 (0.74, 0.96) | 0.68 (0.58, 0.79) | 0.55 (0.43, 0.66) | 0.71 (0.62, 0.81) | 0.63 (0.52, 0.73) | 0.56 (0.42, 0.70) | Synergistic |  |  |  |  |  |  |  |  |  | Overall Result (HIV-1 LAI; listed as nevirapine): strong synergistic effects
